Test results from patent US20250228838A1, “METHODS OF USE OF CYCLIC AMIDE DERIVATIVES TO TREAT SIGMA RECEPTOR MEDIATED DISORDERS” (Minerva Neurosciences, Inc., priority 2010, published 2025).

How the values were obtained:
[1] = biological target: 5-HT2A (Homo sapiens, UniProt P28223); details: cited from earlier work
[2] = biological target: sigma 2 receptor (Homo sapiens, UniProt Q5BJF2); details: cited from earlier work
[3] = tested on: dopamine; details: cited from earlier work
[4] = tested on: patients with DSM-IV schizophrenia; experiment: Phase 2 double-blind, randomized, placebo-controlled clinical study of CYR-101; format: in vivo, human
Protocol: A study was conducted using the compound of formula II, to examine the efficacy on schizophrenia and treatment of symptoms of schizophrenia. The study was a multi-center, inpatient and ambulatory, phase 2, double-blind, randomized, placebo-controlled proof of concept study of the compound of formula II in patients with DSM-IV schizophrenia. The study used 21 centers across three different countries. The study was designed to test the therapeutic efficacy of the compound of formula II on all dimensions of schizophrenic disease (E.g., positive, negative, and general symptoms, cognition, sleep, mood and anxiety). The study also examined the safety of the administered doses of the compound of formula II (also referred to herein as CYR-101), including heart repolarization (i.e., QT interval), weight change, adverse events, prolactin, and extrapyramidal symptoms). The study was conducted for a time period of three months. […] In one aspect of the study, the dosage of compound was titrated up to 32 mg b.i.d. The resulting data was analyzed one of three ways: 1.) Safety set; 2.) Full analysis set, with each patient having at least one PANSS evaluation after treatment initiation included in the efficacy analysis. The LOCF method is used; and 3.) Per protocol set, where for certain analyses, all patients having completed three months of treatment are included. ANCOVA followed by a contrast analysis at each time point were applied and in some cases, a non-parametric Wilcoxon test was used.

sigma 2 receptor, sequence (Q5BJF2 whole entry, species assumed): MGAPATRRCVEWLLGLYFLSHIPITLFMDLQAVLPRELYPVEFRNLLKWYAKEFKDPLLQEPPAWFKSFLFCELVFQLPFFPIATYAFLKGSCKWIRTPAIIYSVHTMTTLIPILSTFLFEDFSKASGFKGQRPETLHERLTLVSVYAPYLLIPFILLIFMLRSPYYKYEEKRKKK
5-HT2A, sequence (P28223 whole entry, species assumed): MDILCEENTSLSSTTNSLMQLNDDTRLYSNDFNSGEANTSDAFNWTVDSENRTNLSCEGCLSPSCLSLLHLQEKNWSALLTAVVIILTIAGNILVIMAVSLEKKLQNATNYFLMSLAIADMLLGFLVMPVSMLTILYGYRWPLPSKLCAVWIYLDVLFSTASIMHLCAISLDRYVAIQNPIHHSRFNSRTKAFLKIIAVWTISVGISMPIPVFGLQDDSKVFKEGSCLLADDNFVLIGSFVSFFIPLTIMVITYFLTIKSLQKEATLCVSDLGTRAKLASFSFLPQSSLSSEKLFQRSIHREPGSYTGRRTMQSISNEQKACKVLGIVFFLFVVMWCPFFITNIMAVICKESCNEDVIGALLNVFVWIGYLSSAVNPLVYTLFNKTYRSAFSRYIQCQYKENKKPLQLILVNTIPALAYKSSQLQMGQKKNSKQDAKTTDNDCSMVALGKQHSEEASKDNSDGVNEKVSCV

Which “mode of action at 5-HT2A” value [1] does the source give for O=C(CN1CCC(CN2Cc3ccccc3C2=O)CC1)c1ccc(F)cc1 [CYR-101, 2-[[1-[2-(4-Fluorophenyl)-2-oxoethyl]piperidin-4-yl]methyl]isoindolin-1-one] here?
The value was “antagonist”.

And the Ki ([2]; Table 3 of U.S. Pat. No. 7,166,617, read-out: affinity for the sigma 2 receptor)?
Its Ki is 13 nM.

What about the “mode of action at sigma 2” value [2] of the same compound?
The value was “antagonist”.

And the “sigma 2 selectivity of receptor binding” value [2]?
The value was “sigma 2-selective receptor binding”.

And the dopamine binding [3]?
Its dopamine binding is “devoid of dopamine binding properties”.

What about the QT interval ([4]; doses up to 32 mg b.i.d., clinically acceptable limits E.g. 10-15 milliseconds or less) of the same compound?
Its QT interval is “did not cross clinically acceptable limits”.

And the “cognitive performances assessed by BACS, versus placebo” value ([4]; full analysis set (FAS))?
The value was “no differences between the placebo group and the CYR-101 group, except for the Token motor task”.

What about the “cognitive performances assessed by BACS, versus placebo” value ([4]; per protocol set (PPC) at D84, Token motor task, list learning task, verbal fluency, processing speed, not statistically significant) of the same compound?
The value was “slight difference in favour of CYR-101 group”.

What about the “duration of continued improvement in both positive and negative symptoms” value ([4]; schizophrenic patients) of the same compound?
The value was “continued for more than twelve weeks”.

And the effect on cognition ([4]; schizophrenic patients)?
The effect on cognition was “positive effect on cognition”.

And the “mood, anxiety and sleep” value ([4]; schizophrenic patients)?
The value was “some improvements of mood, anxiety and sleep”.

And the “improvement in positive symptoms” value ([4]; schizophrenic patients, PANSS)?
The value was “did not improve until after the first four weeks of treatment”.

What about the “improvement in negative symptoms” value ([4]; schizophrenic patients, PANSS, course of treatment) of the same compound?
Its value is “observed immediately, and continued through the course of treatment”.

And the “emergence or worsening of extrapyramidal symptoms, CYR-101 versus placebo” value ([4]; schizophrenic patients, three months, titrated up to 32 mg b.i.d.)?
The value was “no significant difference”.

What about the “number of SAE in the active treatment group” value ([4]; three SAE in total, two in placebo group, unlikely related to CYR-101) of the same compound?
Its value is “one”.
